Entries after “also recorded” stand apart in the source; their conditions may differ.
Legend:
[1] = tested on: IL-2 (alpha chain CD25) receptor; test: IL-2 receptor expression on anti-CD3 stimulated splenocytes (flow cytometry); format: cell-based, mouse; conditions: anti-CD3 1 µg/ml, 24 hours, 1 µM
Protocol: This investigation illustrates IL-2 (alpha chain CD25) receptor expression on mouse splenoyctes. The IL-2 receptor is not expressed on resting T-cells, but is rapidly-induced by certain stimulants, e.g. antigen recognition or treatment with ConA or antibodies to CD3 (anti-CD3). IL-2-dependent proliferation requires IL-2 receptor expression. […] 49 (1 µM). Following overnight incubation, the splenocytes were stained with a fluoresceinated anti-IL-2 receptor antibody and fluorescence measured by flow cytometry. Figures 5A and 5B are frequency histograms of measurements for 20,000 cells per sample.
In another assay, inventive compound no. […] Murine splenocytes were activated for 24 hours with anti-CD3 (1 µg/ml), stained with a fluorescent antibody to CD25 and analyzed by flow cytometry.

[2] = tested on: murine cytotoxic T-cell line, CT6; test: Cytokine-induced proliferation of the cytotoxic T-cell line CT6 / CT-6.1; format: cell-based; conditions: for IC50: Mus musculus, T-cell, CT-6.1 cells; for inhibition of direct IL-2-induced proliferation: added one hour prior to IL-2, thymidine at 48 hours
Outline: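 IL-2-dependent murine CT6/CT-6.1 cells deprived of IL-2 (24 h or overnight), then stimulated with IL-2 (15 U/ml or 20 ng/ml), IL-4 (50 ng/ml) or IL-7 (25 ng/ml) with compound at various concentrations. Proliferation by ³H-TdR incorporation (4 h pulse from 20 h, or at 48 h); viable counts up to 8 days with 2 µM compound.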

C57BL/6 splenocytes = test: Antigen specific anergy induction (splenocytes with 2PK3 B cell tumor, restimulation); format: cell-based, murine
Protocol: A B cell tumor, 2PK3 (H-2d) was used as a stimulating cell for C57BL/6 splenocytes (H-2b), a responding cell. Mixed cultures of B-cell tumor and splenocytes were incubated for 5 days with and without 1 µM of compound no. 45. After 5 days, the cells were washed and resuspended with either media, the original antigen (2PK3) or anti-CD3. Tritiated thymidine was added to the resulting suspensions and thymidine incorporation measured 24 hours later. As illustrated, culture treated with inventive compound no. […] However, cultures incubated with inventive compound no. […] Thus, C57BL/6 splenocytes were inhibited from responding to an original antigen by the inventive compound used in the pre-incubation step.
As shown in figures 56A and 56B, inventive compound no. 45 also induces antigen specific T-cell anergy. Procedurally, murine splenocytes were stimulated with an alloantigen target cell line 2PK3 in the presence or absence of compound no. 45 (1 µM; approximate IC50). Following 5 days in culture, the cells were washed, re-cultured and restimulated with the original priming antigen and anti-CD3 monoclonal antibody. […] 45 during the five day primary culture. […] Although cells pretreated with inventive compound no. 45 could respond normally to polyclonal stimulation, those that were challenged with the alloantigen could not. Therefore, compound no. 45 induced a specific state of unresponsiveness or anergy to the alloantigen.

murine splenocytes = test: Splenocytes stimulated with anti-CD3 and anti-CD28 antibodies: proliferation and cytokine release; format: cell-based
From the text: Figures 58A and 58B illustrate that inventive compound no. […] Murine splenocytes were stimulated with a mixture of anti-CD3 and anti-CD28 monoclonal antibodies. Inventive compound no.
Figures 58C and 58D illustrate that compound no. […] Procedurally, murine splenocytes were stimulated with a mixture of anti-CD3/CD28 antibodies. Inventive compound no. […] Addition of an anti-IL-2 receptor alpha subunit antibody and an anti-IL-2 receptor beta subunit antibody to the cultures inhibited both proliferation and the release of IFN-γ (figure 60D).

IL-2 = IL-2 production in thymocytes stimulated with ConA and IL-1 (ELISA); format: cell-based, murine; conditions: ConA and IL-1, 4 days
From the text: Thymocytes were stimulated with ConA and IL-1 for 4 days with or without adding inventive compounds to the culture media. The supernatants were removed and assayed by ELISA for IL-2 levels by a commercially available kit.

[3] = tested on: normal human bone marrow stromal cells; test: Cytotoxicity in normal bone marrow stromal cells (vital dye uptake); format: cell-based; conditions: much higher concentrations than cytotoxic to tumor cells
Protocol: Human bone marrow stromal cells (1 x 10^4 cells/well) were plated in 96 well plates in McCoy's medium with serum and incubated overnight. Different dilutions of inventive compound no. 50 were added and viable cell counts made by vital dye uptake.

Row | IC50 (C57BL/6 splenocytes; Mus musculus, Splenocyte, alloantigen target cell line 2PK3, read-out: approximate IC50) [nM] | SMILES | CD-25 receptor upregulation [1] | proliferation measured by cell number ([2]; CT6.1 cells, IL-2, 2 µM, up to 8 days) | reversibility of the effect ([2]; CT6.1 cells, washed on day 4) | IC50 ([2]; IL-2 (20 ng/ml), fig. 46) [nM] | IC50 ([2]; IL-2 (20 ng/ml), fig. 48) [nM] | IC50 ([2]; IL-4 (50 ng/ml)) [nM] | IC50 ([2]; IL-7 (25 ng/ml)) [nM] | inhibition of direct IL-2-induced proliferation [2] | response to anti-CD3 after 5 days culture with compound (C57BL/6 splenocytes; 1 µM) | response to original/priming antigen 2PK3 after 5 days culture with compound (C57BL/6 splenocytes; 1 µM) | CD28-mediated release of IL-2 (murine splenocytes) | T cell proliferation (murine splenocytes) | release of IFN-γ (murine splenocytes) | IL-2 production (IL-2) | cytotoxic activity [3]
1 | ~1000 | CCCCCCCCNCC(O)CCCCCCCCCn1c(=O)c2c(ncn2C)n(C)c1=O (centres unmarked) [compound no. 45] | did not inhibit CD-25 (p55) receptor upregulation by anti-CD3 | inhibits proliferation as measured by cell number | reversible even after 4 days in culture | ~800 | < 1000 | < 1000 | < 1000 | inhibited direct IL-2-induced CT6 proliferation | responded equivilantly to anti-CD3; also recorded: polyclonal T-cell response to anti-CD3 was not affected | decreased response to primary antigen, 2PK3; also recorded: secondary response to the priming antigen was inhibited | did not inhibit the CD28-mediated release of IL-2 | inhibited T cell proliferation in this system | inhibited release of IFN-γ |  | 
2 |  | CCCCCCCCCCCCNCC(O)CCCCCCCCCn1c(=O)c2c(ncn2C)n(C)c1=O (centres unmarked) [compound no. 50, 1-(11-Dodecylamino-10-hydroxyundecyl)-3,7-dmethylxanthine] |  |  |  |  |  |  |  | inhibited direct IL-2-induced CT6 proliferation |  |  |  |  |  | do not inhibit production of IL-2 | lacks cytotoxic activity in normal human bone marrow stromal cells
